The target in the test is recombinant CaMKIIδ (Homo sapiens (Human), UniProt Q13557). The experiment in a line: CaMKIIδ biochemical assay (HTRF). To be noted: 10 pM CaMKIIδ, 110 nM calmodulin, 12 μM ATP, 1 hour; read-out: CAMKIID-HTRF-384V2 (IC50 - nM). The method, then:
CaMKIIδ Biochemical Assay
The biochemical activity of recombinant CaMKIIδ was measured by monitoring the phosphorylation of a target peptide using Homogenous Time Resolved Fluorescence (HTRF) technology from CisBio Bioassays.
For the compound `CCNC(C)(C)CNC(=O)c1ccnc(-c2cnn3ccc(-c4ccccc4)nc23)c1` [Example 67, N-(2-(ethylamino)-2-methylpropyl)-2-(5-phenylpyrazolo[1,5-a]pyrimidin-3-yl)isonicotinamide], the IC50 worked out at 102 nM.

With `O=C(c1ccnc(-c2cnn3ccc(-c4ccccc4)nc23)c1)N1CCCCC12CCCNC2` (stereo not shown) [Example 68, (2-(5-phenylpyrazolo[1,5-a]pyrimidin-3-yl)pyridin-4-yl)(1,8-diazaspiro[5.5]undecan-1-yl)methanone], the IC50 stood at 26.3 nM.

Regarding `CCN[C@H](CNC(=O)c1ccnc(-c2cnn3ccc(-c4ccccc4)nc23)c1)COc1ncccn1` [Example 69, (R)—N-(2-(ethylamino)-3-(pyrimidin-2-yloxy)propyl)-2-(5-phenylpyrazolo[1,5-a]pyrimidin-3-yl)isonicotinamide], the IC50 stood at 91.1 nM.

On to `CCN(CC)[C@H](CNC(=O)c1ccnc(-c2cnn3ccc(-c4ccccc4)nc23)c1)COc1ncccn1` [Example 70, (R)—N-(2-(diethylamino)-3-(pyrimidin-2-yloxy)propyl)-2-(5-phenylpyrazolo[1,5-a]pyrimidin-3-yl)isonicotinamide], for which the IC50 is 30.1 nM.

With `CC(C)NC(CNC(=O)c1ccnc(-c2cnn3ccc(-c4ccccc4)nc23)c1)C(C)C` (stereo not shown) [Example 73, N-(2-(isopropylamino)-3-methylbutyl)-2-(5-phenylpyrazolo[1,5-a]pyrimidin-3-yl)isonicotinamide], the IC50 is 31.9 nM.

Regarding `CCN[C@H](C)CNC(=O)c1ccnc(-c2cnn3ccc(-c4ccccc4)nc23)c1` [Example 74, (R)—N-(2-(ethylamino)propyl)-2-(5-phenylpyrazolo[1,5-a]pyrimidin-3-yl)isonicotinamide], the half-maximal inhibitory concentration (IC50) turned out to be 34.2 nM.

Regarding `CC[C@@]1(CNC(=O)c2ccnc(-c3cnn4ccc(-c5ccccc5)nc34)c2)CCCN1` [Example 75, (S)—N-((2-ethylpyrrolidin-2-yl)methyl)-2-(5-phenylpyrazolo[1,5-a]pyrimidin-3-yl)isonicotinamide], the IC50 was 39.3 nM.

Regarding `O=C(c1ccnc(-c2cnn3ccc(-c4cccs4)nc23)c1)N1CC2CCC(C1)NC2` (stereo not shown) [Example 76], the IC50 was determined as 3.47 nM.

For the compound `O=C(c1ccnc(-c2cnn3ccc(-c4cccs4)nc23)c1)N1CC2CCC[C@@H](C1)NC2` [Example 77, ((1S)-3,9-diazabicyclo[3.3.2]decan-3-yl)(2-(5-(thiophen-2-yl)pyrazolo[1,5-a]pyrimidin-3-yl)pyridin-4-yl)methanone], the IC50 turned out to be 2.7 nM.

`NC[C@H]1CCCN1C(=O)c1ccnc(-c2cnn3ccc(-c4cccs4)nc23)c1` [Example 79, (R)-(2-(aminomethyl)pyrrolidin-1-yl)(2-(5-(thiophen-2-yl)pyrazolo[1,5-a]pyrimidin-3-yl)pyridin-4-yl)methanone]: the IC50 worked out at 2.85 nM.

Regarding `O=C(c1ccnc(-c2cnn3ccc(-c4cccs4)nc23)c1)N1CC2CNC(COC2)C1` (stereo not shown) [Example 81], the IC50 was determined as 7.33 nM.

In the case of `O=C(c1ccnc(-c2cnn3ccc(-c4cccs4)nc23)c1)N1C2CCNCC1CC2` (stereo not shown) [Example 82], the IC50 worked out at 6.14 nM.

As for `N[C@H]1CCCN(C(=O)c2ccnc(-c3cnn4ccc(-c5cccs5)nc34)c2)C1` [Example 83, (S)-(3-aminopiperidin-1-yl)(2-(5-(thiophen-2-yl)pyrazolo[1,5-a]pyrimidin-3-yl)pyridin-4-yl)methanone], the IC50 stood at 18.8 nM.

With `C[C@@H]1CNCCN1C(=O)c1ccnc(-c2cnn3ccc(-c4cccs4)nc23)c1` [Example 84, (R)-(2-methylpiperazin-1-yl)(2-(5-(thiophen-2-yl)pyrazolo[1,5-a]pyrimidin-3-yl)pyridin-4-yl)methanone], the IC50 was determined as 17.5 nM.

`N[C@H]1CCN(C(=O)c2ccnc(-c3cnn4ccc(-c5cccs5)nc34)c2)C1` [Example 85, (S)-(3-aminopyrrolidin-1-yl)(2-(5-(thiophen-2-yl)pyrazolo[1,5-a]pyrimidin-3-yl)pyridin-4-yl)methanone]: the IC50 came to 4.8 nM.

On to `N[C@@H]1CCC[C@@H]2CCCN(C(=O)c3ccnc(-c4cnn5ccc(-c6cccs6)nc45)c3)[C@@H]21` [Example 86, ((4aR,8R,8aS)-8-aminooctahydroquinolin-1(2H)-yl)(2-(5-(thiophen-2-yl)pyrazolo[1,5-a]pyrimidin-3-yl)pyridin-4-yl)methanone], for which the IC50 amounted to 0.99 nM.

Consider `N[C@H]1CCN(C(=O)c2ccnc(-c3cnn4ccc(-c5ccccc5)nc34)c2)C1` [Example 87, (S)-(3-aminopyrrolidin-1-yl)(2-(5-phenylpyrazolo[1,5-a]pyrimidin-3-yl)pyridin-4-yl)methanone], for which the IC50 turned out to be 45.2 nM.

In the case of `N[C@H]1C[C@@H]2CCC[C@H]1N2C(=O)c1ccnc(-c2cnn3ccc(-c4ccccc4)nc23)c1` [Example 88, ((1S,5R,6S)-6-amino-8-azabicyclo[3.2.1]octan-8-yl)(2-(5-phenylpyrazolo[1,5-a]pyrimidin-3-yl)pyridin-4-yl)methanone], the IC50 turned out to be 50.3 nM.

With `O=C(c1ccnc(-c2cnn3ccc(-c4ccccc4)nc23)c1)N1CCCCC12CCNC2` (stereo not shown) [Example 89, (2-(5-phenylpyrazolo[1,5-a]pyrimidin-3-yl)pyridin-4-yl)(2,6-diazaspiro[4.5]decan-6-yl)methanone], the concentration for half-maximal inhibition (IC50) was determined as 13.6 nM.

Take `C[C@H](N)[C@@H]1CCCCN1C(=O)c1ccnc(-c2cnn3ccc(-c4ccccc4)nc23)c1` [Example 90, ((S)-2-((S)-1-aminoethyl)piperidin-1-yl)(2-(5-phenylpyrazolo[1,5-a]pyrimidin-3-yl)pyridin-4-yl)methanone]: the IC50 was determined as 58.5 nM.

As to `O=C(c1ccnc(-c2cnn3ccc(-c4ccccc4)nc23)c1)N1C2CCCC1CNCC2` (stereo not shown) [Example 91], the IC50 was 32.8 nM.

In the case of `O=C(c1ccnc(-c2cnn3ccc(-c4ccccc4)nc23)c1)N1CCC2CNCC21` (stereo not shown) [Example 92, (hexahydropyrrolo[3,4-b]pyrrol-1(2H)-yl)(2-(5-phenylpyrazolo[1,5-a]pyrimidin-3-yl)pyridin-4-yl)methanone], the IC50 was 32.1 nM.

In the case of `O=C(c1ccnc(-c2cnn3ccc(-c4ccccc4)nc23)c1)N1CCCC[C@@H]1[C@@H]1CCCN1` [Example 93, (2-(5-phenylpyrazolo[1,5-a]pyrimidin-3-yl)pyridin-4-yl)((R)-2-((S)-pyrrolidin-2-yl)piperidin-1-yl)methanone], the IC50 was found to be 27.8 nM.

With `N[C@H]1CC[C@H]2CCCN(C(=O)c3ccnc(-c4cnn5ccc(-c6ccccc6)nc45)c3)[C@H]21` [Example 94, ((4aR,7S,7aR)-7-aminooctahydro-1H-cyclopenta[b]pyridin-1-yl)(2-(5-phenylpyrazolo[1,5-a]pyrimidin-3-yl)pyridin-4-yl)methanone], the IC50 worked out at 7 nM.

With `O=C(c1ccnc(-c2cnn3ccc(-c4ccccc4)nc23)c1)N1CCC2CCNCC21` (stereo not shown) [Example 95, (octahydro-1H-pyrrolo[2,3-c]pyridin-1-yl)(2-(5-phenylpyrazolo[1,5-a]pyrimidin-3-yl)pyridin-4-yl)methanone], the IC50 was determined as 390 nM.

Take `N[C@@H]1CC[C@H]2CCCN(C(=O)c3ccnc(-c4cnn5ccc(-c6ccccc6)nc45)c3)[C@H]21` [Example 96, ((4aR,7R,7aR)-7-aminooctahydro-1H-cyclopenta[b]pyridin-1-yl)(2-(5-phenylpyrazolo[1,5-a]pyrimidin-3-yl)pyridin-4-yl)methanone]: the IC50 was determined as 12.7 nM.

Take `O=C(c1ccnc(-c2cnn3ccc(-c4ccccc4)nc23)c1)N1CCCC12CCCNC2` (stereo not shown) [Example 97, (2-(5-phenylpyrazolo[1,5-a]pyrimidin-3-yl)pyridin-4-yl)(1,7-diazaspiro[4.5]decan-1-yl)methanone]: the IC50 came to 216 nM.

`N[C@@H]1CCC[C@H]2CCCN(C(=O)c3ccnc(-c4cnn5ccc(-c6ccccc6)nc45)c3)[C@H]21` [Example 98, ((4aS,8R,8aR)-8-aminooctahydroquinolin-1(2H)-yl)(2-(5-phenylpyrazolo[1,5-a]pyrimidin-3-yl)pyridin-4-yl)methanone]: the IC50 is 7.36 nM.

For the compound `N[C@H]1CC[C@@H]2CCCN(C(=O)c3ccnc(-c4cnn5ccc(-c6ccccc6)nc45)c3)[C@@H]21` [Example 99, ((4aS,7S,7aS)-7-aminooctahydro-1H-cyclopenta[b]pyridin-1-yl)(2-(5-phenylpyrazolo[1,5-a]pyrimidin-3-yl)pyridin-4-yl)methanone], the IC50 came out at 6.98 nM.

As to `O=C(c1ccnc(-c2cnn3ccc(-c4ccccc4)nc23)c1)N1C[C@H]2CC[C@@H](C1)N2` [Example 100, ((1R,5S)-3,8-diazabicyclo[3.2.1]octan-3-yl)(2-(5-phenylpyrazolo[1,5-a]pyrimidin-3-yl)pyridin-4-yl)methanone], the IC50 amounted to 29.8 nM.

For the compound `O=C(c1ccnc(-c2cnn3ccc(-c4cccs4)nc23)c1)N1CCC[C@@H]2CCNC[C@@H]21` [Example 101, ((4aR,8aR)-octahydro-1,7-naphthyridin-1(2H)-yl)(2-(5-(thiophen-2-yl)pyrazolo[1,5-a]pyrimidin-3-yl)pyridin-4-yl)methanone], the IC50 stood at 9.54 nM.

`CCN(CC)[C@@H](C)CNC(=O)c1cc(N)nc(-c2cnn3ccc(-c4cccs4)nc23)c1` [Example 102, (S)-2-amino-N-(2-(diethylamino)propyl)-6-(5-(thiophen-2-yl)pyrazolo[1,5-a]pyrimidin-3-yl)isonicotinamide]: the IC50 stood at 0.04 nM.

For the compound `CCN(CC)[C@@H](C)CNC(=O)c1cc(Cl)nc(-c2cnn3ccc(-c4cccs4)nc23)c1` [Example 103, (S)-2-chloro-N-(2-(diethylamino)propyl)-6-(5-(thiophen-2-yl)pyrazolo[1,5-a]pyrimidin-3-yl)isonicotinamide], the IC50 is 0.52 nM.

In the case of `CCN(CC)[C@@H](C)CNC(=O)c1cc(-c2cnn3ccc(-c4cccs4)nc23)nc(C(C)C)c1` [Example 104, (S)—N-(2-(diethylamino)propyl)-2-isopropyl-6-(5-(thiophen-2-yl)pyrazolo[1,5-a]pyrimidin-3-yl)isonicotinamide], the IC50 turned out to be 3.96 nM.

These data come from patent US10100058B2, “Fused heterocyclic compounds as CaM kinase inhibitors” (Gilead Sciences, Inc., priority 2016, dated 2018).
